Measured values: patent US12258336B2, “Preparation of seimicarbazide-sensitive amine oxidase inhibitor and use thereof” (SHANGHAI ENNOVABIO PHARMACEUTICALS CO., LTD., priority 2018, dated 2025)

How the values were obtained:
[1] = molecular target: T1, Recombinant human SSAO protein (Homo sapiens, UniProt Q16853); assay: In vitro inhibitory activity on SSAO/VAP-1 (MAO-Glo assay), human; type: biochemical
T1 construct: Eli Lilly (provided, not a catalogue product)
T1 sequence (Q16853 1-763): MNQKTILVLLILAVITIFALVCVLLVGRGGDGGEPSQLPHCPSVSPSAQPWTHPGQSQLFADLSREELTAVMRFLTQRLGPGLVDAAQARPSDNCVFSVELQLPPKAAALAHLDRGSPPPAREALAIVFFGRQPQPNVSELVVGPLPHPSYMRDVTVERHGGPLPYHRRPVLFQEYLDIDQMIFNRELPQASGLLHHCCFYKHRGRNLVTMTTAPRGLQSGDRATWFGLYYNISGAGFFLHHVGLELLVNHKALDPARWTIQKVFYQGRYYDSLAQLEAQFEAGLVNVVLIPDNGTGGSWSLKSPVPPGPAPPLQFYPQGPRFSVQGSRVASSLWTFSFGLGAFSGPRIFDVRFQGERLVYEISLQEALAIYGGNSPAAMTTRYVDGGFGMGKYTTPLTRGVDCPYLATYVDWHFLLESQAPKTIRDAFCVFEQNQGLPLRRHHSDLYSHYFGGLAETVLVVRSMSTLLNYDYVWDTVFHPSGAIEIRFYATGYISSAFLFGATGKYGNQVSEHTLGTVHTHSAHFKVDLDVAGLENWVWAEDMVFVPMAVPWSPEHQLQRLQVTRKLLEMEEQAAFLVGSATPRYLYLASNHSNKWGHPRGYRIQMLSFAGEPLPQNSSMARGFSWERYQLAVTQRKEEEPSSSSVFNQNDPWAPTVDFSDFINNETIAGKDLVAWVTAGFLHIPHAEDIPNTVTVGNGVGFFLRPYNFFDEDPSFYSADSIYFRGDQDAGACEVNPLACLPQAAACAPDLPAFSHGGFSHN
Protocol: This assay was used to evaluate the in vitro inhibitory activity of the compounds on SSAO/VAP-1 of different species. Recombinant human SSAO protein, mouse SSAO protein or rat SSAO protein (provided by Eli Lilly) were used. The enzyme activity detection kit, MAO-Glo Assay kit (V1402) was purchased from Promega. Enzyme reaction buffer (50 mM HEPES, 120 mM NaCl, 5 mM KCl, 2 mM CaCl2, 1.4 mM MgCl2, 0.001% Tween-20, pH7.4) was prepared. The test compound was dissolved in DMSO and diluted by 3-fold concentration in gradient. The final concentration of test compound in a 10 μL reaction system was 1 μM to 0.05 nM when SSAO was detected. The content of DMSO in the detection reaction was 1%. After the solution of test compound in DMSO was diluted in the enzyme reaction buffer at a volume ratio of 1:25, 2.5 μL of which was added to each well of detection plate, two replicates for each concentration. 5 μL of SSAO protein diluted in the enzyme reaction buffer was added to each well, the final concentration of which was 10 nM to 80 nM in 10 μL reaction system. The mixture was incubated at room temperature for 10 minutes. 2.5 μL of the reaction substrate diluted in the enzyme reaction buffer was added to each well, the final concentration of which was 10 μM in 10 μL reaction system. After the mixture was reacted at room temperature for 120 minutes, 10 μL of detection reagent was added to each well. The reaction solution was incubated for 20 minutes at room temperature, and the plate was read with Synergy Neo 2 for detection. The value was converted into inhibition rate by the following formula: Inhibition rate=(Signalpositive−Signaltest)/(Signalpositive−Signalnegative)×100%
Signalpositive was positive control without test compound. Signalnegative was negative control without test compound and SSAO enzyme, and Signaltest was detection value of each compound at different concentrations. IC50 value was calculated by using 4 parameter curve fitting.

Recombinant human MAO-A = molecular target: T2, Recombinant human MAO-A (Homo sapiens, UniProt P21397); assay: Inhibitory activity on MAO-A; type: biochemical
T2 construct: purchased Sigma M7316
T2 sequence (P21397 1-527): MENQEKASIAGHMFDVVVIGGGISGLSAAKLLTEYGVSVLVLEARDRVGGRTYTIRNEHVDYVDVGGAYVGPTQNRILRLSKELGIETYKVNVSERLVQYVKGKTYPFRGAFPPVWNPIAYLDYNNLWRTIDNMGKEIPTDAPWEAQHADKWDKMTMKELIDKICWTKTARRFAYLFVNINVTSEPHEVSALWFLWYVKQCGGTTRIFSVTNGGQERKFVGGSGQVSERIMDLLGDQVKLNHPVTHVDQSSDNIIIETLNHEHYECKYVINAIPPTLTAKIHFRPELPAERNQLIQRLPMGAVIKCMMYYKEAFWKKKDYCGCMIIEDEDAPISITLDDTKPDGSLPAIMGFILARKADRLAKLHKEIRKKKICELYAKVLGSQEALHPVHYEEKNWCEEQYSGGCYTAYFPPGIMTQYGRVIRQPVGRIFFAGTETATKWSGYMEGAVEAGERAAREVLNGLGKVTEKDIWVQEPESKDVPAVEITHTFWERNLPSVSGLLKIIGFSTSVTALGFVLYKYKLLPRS
Protocol: Recombinant human MAO-A and MAO-B protein was purchased from Sigma (M7316, M7441). Other reagents are the same as Biological Test Example 1. The final concentration of test compound in 10 μL reaction system was 100 μM to 5 nM when MAO-A and MAO-B were detected. The final concentrations of MAO-A and MAO-B protein in 10 μL reaction system were 70 nM and 300 nM, respectively, while other reaction conditions were the same as those in Biological Test Example 1. Data analysis and IC50 calculation method were the same as those in Biological Test Example 1.

Row | IC50 [1] [nM] | IC50 (Recombinant human MAO-A) [nM] | SMILES
1 | 10 to 50 | > 100000 | CC1(C)CN(C2COC2)CCN1c1ncc(OC/C(=C/F)CN)cn1 [Example 5]
2 | > 50 | > 100000 | N#Cc1cc(OC/C(=C/F)CN)cnc1N1CCN(C2COC2)CC1 [Example 7]
3 | < 10 | > 100000 | CC1CN(c2ncc(OC/C(=C/F)CN)cn2)CC(C)N1C1COC1 (stereo not shown) [Example 1, (E)-2-(((2-(3,5-dimethyl-4-(oxbutan-3-yl)piperazin-1-yl)pyrimidin-5-yl)oxo)methyl)-3-fluoroprop-2-en-1-amine]
4 | < 10 | 2000 to 100000 | COC1CC2CC1CN2c1ncc(OC/C(=C/F)CN)cn1 (stereo not shown) [Example 2]
5 | < 10 | 2000 to 100000 | NC/C(=C\F)COc1cnc(N2CCC3(CC2)COC3)nc1 [Example 3]
6 | < 10 | > 100000 | NC/C(=C\F)COc1cnc(N2CCN(C3COC3)CC2)nc1 [Example 4, (E)-3-fluoro-2-(((2-(4-(oxbutan-3-yl)piperazin-1-yl)pyrimidin-5-yl)oxo)methyl)prop-2-en-1-amine]
7 | < 10 | > 100000 | NC/C(=C\F)COc1cnc(N2CCN(c3cnc(N4CCN(C5COC5)CC4)nc3)CC2)nc1 [Example 9]
8 | < 10 | 2000 to 100000 | NC/C(=C/F)COc1cnc(N2CCN(C3COC3)CC2)nc1 [Example 8]
9 | 10 to 50 | > 100000 | CC1(C)CN(c2ncc(OC/C(=C/F)CN)cn2)CCN1C1COC1 [Example 10]

Row | SMILES | IC50 [1] [nM] | IC50 (Recombinant human MAO-A) [nM]
10 | COC1CC2CCC(C1)N2c1ncc(OC/C(=C/F)CN)cn1 (stereo not shown) [Example 12] | < 10 | 2000 to 100000
11 | NC/C(=C\F)COc1cnc(N2CC3CCC(C2)N3C2COC2)nc1 [Example 6] | 10 to 50 | > 100000
